In patent US8952054B2, “Small molecule inhibitors of MUC1 and methods of identifying the same” (Dana-Farber Cancer Institute, Inc., priority 2010, dated 2015):

Legend:
MCF-10A cells = assay: MCF-10A cell number (MTS), caspase-9 cleavage and PI uptake; type: cell-based, human; conditions: 3 d
Procedure: FIGS. 13A-D—Apigenin downregulates MUC1 and confers death of MCF-10A cells. (FIG. 13A) MCF-10A cells were treated with the indicated concentrations of apigenin and baicalein for 3 d, washed and then treated for an additional 3 d. Lysates were immunoblotted with the indicated antibodies. (FIG. 13B) MCF-10A cells were treated with the indicated concentrations apigenin (circles) and baicalein (squares) for 3 d. Viable cell number was determined by the MTS assay. The results (mean+SD of 3 determinations) are expressed as percentage of control growth in the presence of DMSO. (FIG. 13C) MCF-10A cells were treated with DMSO, 75 μM apigenin or 75 μM baicalein for 3 d. Lysates were subjected to immunoblotting with the indicated antibodies. (FIG. 13D) MCF-10A cells were treated with DMSO, 75 μM apigenin or 75 μM baicalein for 3 d, stained with propidium iodide and analyzed by flow cytometry.

MUC1-CD = molecular target: T1, MUC1-CD (Homo sapiens, UniProt P15941); assay: Plate-based MUC1-CD dimerization inhibition assay (primary screening); type: biochemical
T1 construct: the 72 aa cytoplasmic domain (CD); His; made in house
T1 sequence (P15941 1184-1255 limits assumed): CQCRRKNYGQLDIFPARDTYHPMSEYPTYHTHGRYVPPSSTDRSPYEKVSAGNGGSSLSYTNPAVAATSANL
Procedure: FIG. 6—Schematic Illustration of Primary HTS Screening Assay for MUC1-CD Dimerization. MUC1-CD protein was coated on a 96 well plate and then incubated with Biotinylated MUC1-CD that binds to non-biotinylated MUC1-CD protein by dimer formation. Bound biotinylated MUC1-CD protein was detected by incubation with Streptavin-HRP+peroxidase substrate system.
FIGS. 11A-C—Identification of MUC1-CD dimerization inhibitors in a small molecule screen. (FIG. 11A) Schematic representation of the MUC1-C subunit with the 58 amino acid (aa) extracellular domain (ECD), the 28 aa transmembrane domain (TD) and the 72 aa cytoplasmic domain (CD; SEQ ID NO: 1). The sequence of MUC1-CD is included with highlighting of the CQC dimerization motif. (FIG. 11B) The assay for identification of MUC1-CD dimerization inhibitors is depicted with the following steps: (i) coating of MUC1-CD onto a microplate, (ii) adding soluble biotinylated MUC1-C and […] compound, and (iii) addition of streptavidin-HRP and then peroxide with conversion by HRP to a blue color. The signal is measured by EnVision and proportional to the amount of bound biotin-labeled MUC1-CD.
FIGS. 12A-D—Apigenin is an inhibitor of MUC1-CD dimerization in vitro and in cells. (FIG. 12A) Structures of apigenin and its analogue baicalein. Using the in vitro screening assay, dimerization of MUC1-CD was assessed in the presence of 100 μM apigenin or 100 μM baicalein each dissolved in 0.1% DMSO. The results (mean±SD of 3 determinations) are expressed as percentage of control dimerization in the presence of DMSO alone. (FIG. 12B) MUC1-CD dimerization was assessed in the presence of the indicated concentrations of apigenin in the in vitro screening assay. […] (FIG. 12C) Soluble MUC1-CD was incubated in the presence of 1% DMSO, 1 mM apigenin or 1 mM baicalein for 1 h at room temperature. Monomers and dimmers were assessed by electrophoresis in a non-reducing gel and immunoblotting with anti-MUC1-C. (FIG. 12D) 293 cells were transiently transfected to express an empty vector or GFP-MUC1-CD and Flag-MUC1-CD. At six hours after transfection, the cells were left untreated, and treated with 75 μM apigenin or baicalein for 3 days. Whole-cell lysates were precipitated with anti-Flag, and the precipitates were immunoblotted with the indicated antibodies.
Multi-well (96- or 384-well) plates are coated with non-biotinylated MUC1-CD, and biotinylated MUC1-CD is added to the plates to initiate MUC1-CD dimerization or oligomerization. A luminescent substrate for biotin binding is added to the plate, followed by washing. Resulting fluorescence is detected by luminescence detection at absorbance 405 nm. A complete schematic illustration of this assay is described in […]. Test compounds are added at multiple concentrations to the plates and, following incubation and washing, the plates are read for luminescent detection. The formation of MUC1-CD dimers is detected.
To develop a HTS assay for compounds that inhibit MUC1-CD dimerization, the inventors generated purified His-tagged MUC1-CD protein. They also generated a biotin-labeled His-tagged MUC1-CD protein using a standard biotinylation kit. Biotinylated and non-biotinylated proteins were purified through Nickel columns.
The inventors coated 96- or 384-well plates with non-biotinylated MUC1-CD protein and added biotinylated MUC1-CD protein to the plates to initiate MUC1-CD/MUC1-CD dimerization or oligomerization. They then added a substrate to the plate which will bind to the biotinylated protein (only at the dimer or oligomer state) and the resultant fluorescence was detected by luminescence detection at absorbance 405 nm. A complete schematic illustration of this assay is described in FIG. 6.
Individual compounds from the chemical libraries were then added at multiple concentrations (0.01 μM to 100 μM) to the plates and following incubation and washing, the plates were read by luminescence detection at […]. […]

[1] = test system: MUC1-expressing cancer cells; assay: Secondary screen against MUC1-expressing cancer cells in vitro; type: cell-based; conditions: legend: ZR-75-1 breast carcinoma cells, 2 days, anti-MUC1-C immunoblot
Procedure: ZR-75-1 breast carcinoma cells were treated with […] Kaempterol for 2 days. Total cell lysates were then analyzed by immunoblotting with anti-MUC1-C antibody (FIG. 17A) or with anti-Actin antibodies (FIG. 17B).
Initial screens were performed in the presence of compounds at a concentration of 100 μM.

ZR-75-1 cells = assay: Cell cycle distribution, apoptosis and necrosis by flow cytometry, ZR-75-1; type: cell-based, human; conditions: ZR-75-1, 5 μM; for necrosis (propidium iodide): detectable at 72 h, more prominent at 96 h
Procedure: FIGS. 3A-D. MUC1/CQC peptide induces S phase arrest and necrosis. ZR-75-1 (FIGS. 2A-B) and MCF-7 (FIGS. 2C-D) cells were treated with 5 μM MUC1/CQC or MUC1/AQA for 3 and 4 d. Cells were fixed and analyzed for cell cycle distribution by flow cytometry (FIGS. 2A and 2C). The percentage of cells in G1, S and G2/M phases is included in the panels. Cells were also stained with propidium iodide and analyzed by flow cytometry for necrosis (FIGS. 2B and 2D). The percentage of necrotic cells is included in the panels.
Cells were harvested, washed with PBS, fixed with 80% ethanol, and incubated in PBS containing 40 μg/ml RNAse and 40 μg/ml propidium iodide for 30 min at 37° C. Cell cycle distribution was determined by flow cytometry. Sub-G1 DNA content was assessed by staining ethanol-fixed and citrate buffer-permeabilized cells with propidium iodide and monitoring by flow cytometry as described (Yin et al., 2007). For assessment of necrosis, cells were incubated with 1 μg/ml propidium iodide/PBS for 5 min at room temperature and then monitored by flow cytometry as described (Yin et al., 2007).

[2] = 100 μM, compared to vehicle (DMSO)

| Molecule | caspase-9 cleavage (MCF-10A cells; 75 μM) | cell number (MTS) (MCF-10A cells) | inhibition (FIGS. 17A-B) [1] | necrosis (propidium iodide) (ZR-75-1 cells) | also measured |
| --- | --- | --- | --- | --- | --- |
| O=c1cc(-c2ccc(O)cc2)oc2cc(O)cc(O)c12 [Apigenin, 4′,5,7-trihydroxyflavone] | caspase-9 cleavage | decreased MCF-10A cell number | showed inhibition | – | cell membrane integrity (PI uptake) (MCF-10A cells; 75 μM): loss of cell membrane integrity; inhibition at 100 µM (MUC1-CD; [2]): ~80%; initial library screen result (MUC1-CD; library of Table 1): MUC1 dimerization inhibitory compounds; IC50 (MUC1-CD; range of concentrations, read-out: 50% inhibition (IC50) of MUC1-CD dimerization): 76 µM |
| O=c1cc(-c2ccccc2)oc2cc(O)c(O)c(O)c12 [Baicalein, 5,6,7-trihydroxyflavone, reference compound] | not | substantially less effective | did not | – | inhibition of MUC1-CD dimerization (MUC1-CD; [2]): little if any effect |
| CC[C@H](C)[C@H](NC(=O)[C@H](CC(=O)O)NC(=O)[C@H](CC(C)C)NC(=O)[C@H](CCC(N)=O)NC(=O)CNC(=O)[C@H](Cc1ccc(O)cc1)NC(=O)[C@H](CC(N)=O)NC(=O)[C@H](CCCCN)NC(=O)[C@H](CCCNC(=N)N)NC(=O)[C@H](CCCNC(=N)N)NC(=O)[C@H](CS)NC(=O)[C@H](CCC(N)=O)NC(=O)[C@H](CS)NC(=O)[C@@H](CCCNC(=N)N)NC(=O)[C@@H](CCCNC(=N)N)NC(=O)[C@@H](CCCNC(=N)N)NC(=O)[C@@H](CCCNC(=N)N)NC(=O)[C@@H](CCCNC(=N)N)NC(=O)[C@@H](CCCNC(=N)N)NC(=O)[C@@H](CCCNC(=N)N)NC(=O)[C@@H](CCCNC(=N)N)NC(=O)[C@H](N)CCCNC(=N)N)C(=O)N[C@@H](Cc1ccccc1)C(=O)N1CCC[C@H]1C(=O)O [MUC1/CQC] | – | – | – | induction of necrosis | sub-G1 DNA content (apoptosis) (ZR-75-1 cells): little if any accumulation of cells with sub-G1 DNA content; cell cycle distribution (ZR-75-1 cells; 72 h): substantial arrest in S phase; cell cycle distribution (ZR-75-1 cells; 96 h): S phase population was decreased |
| MUC1/AQA: control peptide in which the CQC motif was altered to AQA (SEQ ID NO: 11) (AQARRKNYGQLDIFP) [reference compound] | – | – | – | not | – |
